Assay results from patent US9452122B2, “Composition for improving skin conditions, containing extracellular domain of human bone morphogenetic protein receptor 1a as active ingredient” (JOINT CENTER FOR BIOSCIENCES, priority 2011, dated 2016).

Test system: wrinkles induced by UV radiation in SKH-1 nude mice
Test: Wrinkle improvement effect of thioredoxin-human BMPR1a ECD in UV-irradiated nude mice (Example 5)
Type: in vivo
Settings: UV 3 times/week for 11 weeks, 300 μl sample 5 times/week (proteins 1 μM, retinoic acid 0.01%)
Method: SKH-1 nude mice (female, 4 weeks old, DooYeol Biotech, Korea) were acclimated for about 2 weeks under conditions of a temperature of 24±2° C. and a humidity of 50±10% in a 12-hr light/12-hr dark cycle, and then divided into six groups for the experiment.
The protein group and control group were respectively treated with […] corresponding samples every week five times. For UV treatment, the back of each mouse was uniformly coated with the previously prepared sample one hour before UV radiation by using Art brush No. 3 (Hwahong, Incheon Korea).
VLX-3W stimulator(Vilber Lourmat, Marne la Vallee, France) was used for a UV radiation equipment. UV radiation was conducted three times every week for a total of 11 weeks: 40 mJ/cm^2 for 1st to 2nd weeks; 50 mJ/cm^2 for 3rd to 4th weeks; 60 mJ/cm^2 for 5th to 9th weeks; and 70 mJ/cm^2 for 10th to 11th weeks.
As the result of integration of the evaluations on respective items through observation by the naked eye, it was verified that skin wrinkles were improved by about 38% in the group coated with retinoic acid, about 42% in the group treated with Lipo-BMPR1a ECD, and about 59% in the group treated with Lipo-thioredoxin-BMPR1a ECD.

CC1=C(/C=C/C(C)=C/C=C/C(C)=C/C(=O)O)C(C)(C)CCC1 [retinoic acid]
skin wrinkles improved (wrinkle scores of 10 grades from photographs): about 38%
